Test results: patent publication US7291611B2, “Benzimidazolidinone derivatives as muscarinic agents” (ACADIA Pharmaceuticals Inc., priority 2001, dated 2007)

Experiments:
[1] = target: T1, human dopamine D2 receptor (Homo sapiens, UniProt P14416); experiment: [3H]-Spiperone radioligand binding to D2 receptor membranes; conditions: tSA cell membranes, 150 pM [3H]-Spiperone; read-out: D2 [3H]Spiperone pIC50 (converted)
T1 construct: expressed in transfected cells; host or cells: tSA cells
Description: The D2 dopamine receptor subtype was cloned substantially as described by Stormann, Gdula, Weiner and Brann, 1990 [Mol Pharmacol 37, 1-6]. Cell membranes expressing the D2 receptor were prepared by transfecting tSA cells (Chahine, M., Bennet, P. B., George, A. L., Horn, R. (1994) Pfluegers Arch. 427, 136-142) with 10 μg plasmid DNA encoding the human dopamine D2 receptor and 40 μl Superfect (Qiagen). The cells were harvested 48 hours and transfection and membranes were prepared by homogenizing the cells using a Polytron harvester in 20 mM Hepes, 10 mM EDTA, pH 7.4. The homogenate was centrifuged for 30 minutes at 37,000 g. The pellet was homogenized again in 60 ml 20 mM Hepes, 5 mM EDTA. The homogenate was centrifuged for 30 minutes at 37,000 g. The supernatant was discarded. The pellet was homogenized again in 10 ml 20 mM Hepes, 1 mM EDTA. The resultant membranes were frozen at −80° C.
The membranes were combined with 150 pM [^3H]-Spiperone (Amersham-Pharmacia, 107 Ci/mmol) and ligand concentrations between 1 nM and 10 μM, or haloperidol concentrations between 0.1 nM and 1 μM in 460 μl 20 mM Hepes, 1 mM EDTA, 0.1% (w/v) bovine serum albumin. Nonspecific binding was defined as binding in the presence of 1 μM haloperidol. The membranes were incubated for 4 hours at 37° C., and then filtered onto Packard GFB Filterplates using a Packard harvester. The membranes were dried and 50 μl Microscint (Packard) was added to each well. The amount of bound radioligand was quantified using a Packard Topcount scintillation counter.
Data were normalized relative to the maximum inhibition of [^3H]-Spiperone binding by 1 μM haloperidol, and the following equation was fitted to the data: % inhibition=minimum+(maximum−minimum)/(1+([ligand]/[IC50])) % inhibition was defined as (maximum−minimum)/(maximum response of cells to haloperidol). pIC50=−log (IC50). NT=not tested. Results

[2] = target: T2, M1 muscarinic receptor (Homo sapiens, UniProt P11229); experiment: R-SAT functional assay, muscarinic M1 receptor; type: cell-based; conditions: for Emax: NIH3T3, relative to maximum response to carbachol, read-out: M1 % Efficacy; for Emax / EC50: R-SAT, transfected NIH-3T3 cells; for EC50: read-out: M1 pEC50 (converted)
T2 construct: expressed in transfected cells; host or cells: NIH-3T3 cells (ATCC CRL 1658)
T2 sequence (P11229 1-460): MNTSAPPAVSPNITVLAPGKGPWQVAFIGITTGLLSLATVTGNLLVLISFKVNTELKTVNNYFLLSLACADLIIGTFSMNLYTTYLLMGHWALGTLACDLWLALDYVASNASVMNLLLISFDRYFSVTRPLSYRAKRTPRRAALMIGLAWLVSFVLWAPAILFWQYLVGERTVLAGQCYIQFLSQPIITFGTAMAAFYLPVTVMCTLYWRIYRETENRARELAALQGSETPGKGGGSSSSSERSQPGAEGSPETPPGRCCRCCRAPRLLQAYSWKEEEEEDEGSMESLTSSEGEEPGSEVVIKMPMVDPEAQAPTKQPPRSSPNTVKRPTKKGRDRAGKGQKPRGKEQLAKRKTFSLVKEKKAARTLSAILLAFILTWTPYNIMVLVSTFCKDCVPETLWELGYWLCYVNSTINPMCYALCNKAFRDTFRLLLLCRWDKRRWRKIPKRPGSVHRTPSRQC
Description: (§1) The M1 and M4 muscarinic receptor subtypes were cloned substantially as described by Bonner et al., (1987) Science […] p. 527 and Bonner et al, (1988) Neuron 1, p. 403. R-SAT assays were carried out substantially as described in U.S. Pat. No. 5,707,798 and by Braüner-Osbome, H. B. and Brann, M. R. (1995), Eur. J. Pharmacol. 295:93-102. NIH-3T3 cells (available from the American Type Culture Collection as ATCC CRL 1658) were transfected with plasmid DNA encoding the m1 and m4 receptors and plasmid DNA encoding β-galactosidase. Transfected cells were grown in the presence of between 1 nM and 40 μM of the test compound for 5 days. On day 5, the cells were lysed using 0.5% nonidet-P and β-galactosidase expression was quantified using the chromogenic substrate o-nitrophenyl-p-D-galactoside (ONGP).
(§2) Data were normalized relative to the maximum response of the cells to the muscarinic agonist carbachol, and the following equation was fitted to the data: response=minimum+(maximum−minimum)/(1+([ligand]/EC50)) % Efficacy was defined as (maximum−minimum)/(maximum response of cells to carbachol). pEC50=−log (EC50). Where data gave a bell-shaped curve, “maximum” was defined as the highest observed response.

[3] = target: T3, M4 muscarinic receptor (Homo sapiens, UniProt P08173); experiment: R-SAT functional assay, muscarinic M4 receptor; type: cell-based; conditions: for Emax: NIH3T3, relative to maximum response to carbachol, read-out: M4 % Efficacy; for Emax / EC50: R-SAT, transfected NIH-3T3 cells; for EC50: read-out: M4 pEC50 (converted)
T3 construct: expressed in transfected cells; host or cells: NIH-3T3 cells (ATCC CRL 1658)
T3 sequence (P08173 1-479): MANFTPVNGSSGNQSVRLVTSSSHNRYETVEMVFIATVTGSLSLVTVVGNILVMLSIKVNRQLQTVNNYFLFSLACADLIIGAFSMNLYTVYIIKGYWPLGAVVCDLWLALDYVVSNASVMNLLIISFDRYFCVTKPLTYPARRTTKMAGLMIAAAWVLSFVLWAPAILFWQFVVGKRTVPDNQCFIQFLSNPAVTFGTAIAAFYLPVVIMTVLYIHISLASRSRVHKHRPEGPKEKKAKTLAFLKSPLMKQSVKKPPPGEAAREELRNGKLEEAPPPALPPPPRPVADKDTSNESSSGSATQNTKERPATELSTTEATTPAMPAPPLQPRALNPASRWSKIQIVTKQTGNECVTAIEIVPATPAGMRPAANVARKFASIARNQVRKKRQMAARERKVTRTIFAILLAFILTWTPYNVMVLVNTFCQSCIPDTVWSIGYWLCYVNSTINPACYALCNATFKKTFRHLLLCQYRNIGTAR
Description: as §1, §2

T1 sequence (P14416 1-414 isoform P14416-2): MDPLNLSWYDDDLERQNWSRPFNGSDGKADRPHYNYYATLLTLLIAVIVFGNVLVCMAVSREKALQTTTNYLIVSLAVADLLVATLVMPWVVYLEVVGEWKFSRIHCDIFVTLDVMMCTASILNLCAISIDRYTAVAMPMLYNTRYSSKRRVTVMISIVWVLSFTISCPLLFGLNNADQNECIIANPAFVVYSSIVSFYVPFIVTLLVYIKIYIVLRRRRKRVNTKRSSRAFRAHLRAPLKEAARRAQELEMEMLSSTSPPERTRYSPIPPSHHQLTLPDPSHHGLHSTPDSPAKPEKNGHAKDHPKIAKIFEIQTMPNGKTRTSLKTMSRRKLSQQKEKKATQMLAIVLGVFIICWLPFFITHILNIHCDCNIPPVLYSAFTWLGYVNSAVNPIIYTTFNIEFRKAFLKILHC

| IC50 [1] | binding efficacy for the M1 receptor subtype [2] | Emax [2] | EC50 [2] | binding efficacy for the M4 receptor subtype [3] | Emax [3] | EC50 [3] | Compound |
| --- | --- | --- | --- | --- | --- | --- | --- |
| 3160 nM | high binding efficacy | 89% | 100 nM | high binding efficacy | 61% | 1260 nM | CCCCC1CCN(CCCn2c(=O)n(C)c3ccccc32)CC1 [Compound 45NK-110, 1-[3-(4-Butylpiperidin-1-yl)propyl]-3-methyl-1,3-dihydrobenzoimidazol-2-one] |
| 50.1 nM |  | 99% | 31.6 nM |  | 141% | 794 nM | CCCCC1CCN(C[C@@H](C)Cn2c(=O)sc3ccccc32)CC1 [Compound 85LM91-78R, 3-(3-(4-Butylpiperidin-1-yl)-(R)-2-methylpropyl)-3H-benzothiazol-2-one] |
| 631 nM |  | 73% | 100 nM |  | 36% |  | CCCCC1CCN(CCCn2c(=O)oc3cccc(C)c32)CC1 [Compound 86KK25-a, 3-[3-(4-butylpiperidin-1-yl]propyl)-4-methyl-3H-benzooxazol-2-one] |
| 251 nM |  | 71% | 200 nM |  |  |  | CCCCC1CCN(CCCn2c(=O)oc3cc(F)ccc32)CC1 [Compound 97KK28, 3-[3-(4-butylpiperidin-1-yl)propyl]-6-fluoro-3H-benzooxazol-2-one] |
| 1000 nM | high binding efficacy | 107% | 31.6 nM | high binding efficacy | 164% | 79.4 nM | CCCC=C1CCN(CCCn2c(=O)[nH]c3ccccc32)CC1 [Compound 61KS-12, 1-(3-[4-Butylidenepiperidino]propyl)-1,3-dihydrobenzimidazol-2-one] |
| 79.4 nM |  | 104% | 31.6 nM |  | 94% | 1580 nM | CCCCC1CCN(CC(C)Cn2c(=O)sc3ccccc32)CC1 (centres unmarked) [Compound 85LM14, 3-(3-(4-Butyl-piperidin-1-yl)-2-methyl-propyl)-3H-benzothiazol-2-one] |
|  |  | 98% | 25.1 nM |  |  |  | CCCOC1CCN(CC(C)Cn2c(=O)sc3ccccc32)CC1 (centres unmarked) [Compound 85LM49B, 3-(3-(4-Propoxy-piperidin-1-yl)-2-methyl-propyl)-3H-benzothiazol-2-one] |
| 631 nM | high binding efficacy | 70% | 50.1 nM | high binding efficacy | 40% | 79.4 nM | CC(C)CC=C1CCN(CCCn2c(=O)[nH]c3ccccc32)CC1 [Compound 45NK-70, 1-{3-[4-(3-Methylbutylidene)piperidin-1-yl]propyl}-1,3-dihydrobenzoimidazol-2-one] |
| 316 nM |  | 96% | 79.4 nM |  | 112% | 794 nM | CCCOC1CCN(CCCn2c(=O)sc3ccccc32)CC1 [Compound 61KS70-1, 3-[3-(4-Propoxy-piperidin-1-yl)-propyl]-3H-benzothiazol-2-one] |
| 79.4 nM |  | 83% | 25.1 nM |  | 93% | 398 nM | CCCCC1CCN(CCCn2c(=O)sc3ccccc32)CC1 [Compound 62KK040d, 3-[3-(4-Butylpiperidin-1-yl)propyl]-3H-benzothiazol-2-one] |
| 631 nM |  | 75% | 200 nM |  | 56% | 1260 nM | CCCCC1CCN(CCCn2c(=O)oc3ccc(F)cc32)CC1 [Compound 86KK22-K, 3-[3-(4-butylpiperidin-1-yl)propyl]-5-fluoro-3H-benzooxazol-2-one] |
|  |  | 84% | 100 nM |  | 63% | 794 nM | CCCCC1CCN(CCCn2c(=O)oc3ccc(C)cc32)CC1 [Compound 86KKM25-d, 3-[3-(4-butylpiperidin-1-yl)propyl]-5-methyl-3H-benzooxazol-2-one] |
| 398 nM | high binding efficacy | 71% | 100 nM | high binding efficacy | 49% | 251 nM | CCCCCC1CCN(CCCn2c(=O)[nH]c3ccccc32)CC1 [Compound 45NK-71, 1-[3-(4-Pentylpiperidin-1-yl)propyl]-1,3-dihydrobenzoimidazol-2-one] |
| 398 nM |  | 78% | 126 nM |  |  |  | CCCCC1CCN(CCCN2C(=O)Cc3ccccc32)CC1 [Compound 85LM12, 1-(3-(4-Butylpiperidin-1-yl)propyl)-1,3-dihydro-indol-2-one] |
| 398 nM | high binding efficacy | 106% | 39.8 nM | high binding efficacy | 100% | 39.8 nM | CCCCC=C1CCN(CCCn2c(=O)[nH]c3ccccc32)CC1 [Compound 61KS-13, 1-(3-[4-Pentylidenepiperidino]propyl)-1,3-dihydrobenzimidazole-2-one] |

| Compound | IC50 [1] | binding efficacy for the M1 receptor subtype [2] | Emax [2] | EC50 [2] | binding efficacy for the M4 receptor subtype [3] | Emax [3] | EC50 [3] |
| --- | --- | --- | --- | --- | --- | --- | --- |
| CCCCC1CC2CCC(C1)N2CCCn1c(=O)sc2ccccc21 (centres unmarked) [Compound 97KS96-2, 3-[3-(3-Butyl-8-aza-bicyclo[3.2.1]oct-8-yl)-propyl]-3H-benzothiazol-2-one] | 100 nM |  | 63% | 50.1 nM |  | 50% |  |
| CCCCCC1CC2CCC(C1)N2CCCn1c(=O)sc2ccccc21 (centres unmarked) [Compound 79KS97, 3-[3-(3-Pentyl-8-aza-bicyclo[3.2.1]oct-8-yl)-propyl]-3H-benzothiazol-2-one] | 100 nM |  | 70% | 6.31 nM |  |  |  |
